Test results: PMC8160210, “Single tryptophan Y160W mutant of homooligomeric E. coli purine nucleoside phosphorylase implies that dimers forming the hexamer are functionally not equivalent” (Scientific Reports, 2021)
pKd: −log10 of the molar value. Where two headings read alike, the source gives them in different places.

What was measured:
WT PNP/Pi complex = molecular target: T1, WT PNP/Pi complex (Escherichia coli, UniProt P0ABP8); assay: Thermophoretic (MST) titrations with formycin A; design: species or system E. coli; details: two-binding-site model, 50 mM phosphate, pH 7.6, 25 °C
T1 construct: made in house
Procedure: (§1) Measurements were performed with Monolith NT115 (NanoTemper). Enzyme was labelled with NT647 fluorescent dye (NanoTemper) according to the protocol provided by the manufacturer. Labelled proteins show fluorescence excitation and emission maxima of approximately 650 and 670 nm, respectively. The series of titrations were performed at a constant protein concentration. Both proteins (WT and mutant), and ligands were dissolved in 50 mM Tris/HCl pH 7.6 buffer, measurements were performed at 25 °C. […] In the pre-experiments, it was carefully checked for both proteins, WT and Y160W mutant whether any sign of aggregation or inactivation occurs, and if mutant behaviour is similar to that of the WT enzyme. An example of the raw thermophoretic curves obtained with the relative heating laser power at 60% and 80% are shown in the Supplementary Information (Figure S7).
(§2) Experiments of the nucleoside analogue binding were performed in the presence of saturating concentration of phosphate, i.e. 50 mM. For both, WT PNP and Y160W mutant seven repetitions of each curve were measured, for a single power of the heating laser. The power of the heating laser at which the strongest change of the thermophoretic signal upon ligand binding occurs was selected, namely 80% for both enzyme variants. The raw MST traces, for two highest tested laser powers, 60% and 80%, are presented in the Supplementary information (Figure S7) Protein concentration in the capillary was constant and equal to 0.215 μM and 0.0751 μM for the WT protein and the Y160W mutant, respectively. Series of titrations were analysed globally using the DynaFit4 program[40] (see below).
(§3) Three models were taken into account in analysis of binding curves: model with one (first equation below), two (first two equations) and three binding sites. P+L⇔PLwithKd1PL+L⇔PLLwithKd2PLL+L⇔PLLLwithKd3
(§4) The model with one binding site is based on the assumption that all monomers are equivalent, and there is no cooperation between them. In the model with two binding sites the basic functional unit of the protein is a dimer, possible non-equivalence of binding sites or cooperativity between active sites in the dimer are taken into account (in the case of no cooperativity dissociation constants should be related statistically: Kd2 = 4Kd1), the dimers within hexamer are equivalent. The model with three binding sites is based on the crystallographic structures of binary and ternary complexes of PNP with ligands, where two of the dimers are in the “open-closed” conformation, but the third dimer is symmetrical, in the “open-open” conformation. Thus, active sites in the open conformation belonging to “open-closed” and “open-open” dimer may not be equivalent. […]
(§5) Titration series were analysed globally, always starting from the simplest, one-binding-site model. […] For all tested models the Akaike information criterion[23] was also calculated. […] Analysed models were fitted to the raw data, whereas graphs presented in this study were prepared from the normalised data and the fitted curves. […] Responses are defined as changes in a measured physical quantity related to the formation of subsequent protein–ligand complexes: intrinsic protein fluorescence intensity, fluorescence intensity of the dye, heat and ellipticity for fluorimetric, thermophoretic, calorimetric and CD titrations, respectively. […]

Y160W mutant/Pi complex = molecular target: T2, Y160W mutant/Pi complex (Escherichia coli, UniProt P0ABP8, Y161W); assay: Thermophoretic (MST) titrations with formycin A; design: species or system E. coli
T2 construct: made in house; host or cells: E. coli DH5α-T1
T2 sequence (P0ABP8 2-239 Y161W, one chain of several): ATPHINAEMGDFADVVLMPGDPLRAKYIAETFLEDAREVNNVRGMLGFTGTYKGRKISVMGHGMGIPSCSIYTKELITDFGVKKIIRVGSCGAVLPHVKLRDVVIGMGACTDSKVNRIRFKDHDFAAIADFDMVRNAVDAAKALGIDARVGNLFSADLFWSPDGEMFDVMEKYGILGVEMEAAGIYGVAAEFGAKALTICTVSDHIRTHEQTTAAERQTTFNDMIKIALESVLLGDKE
Procedure: as §1, §2, §3, §4, §5

Y160W PNP mutant = Y160W PNP mutant (Escherichia coli, UniProt P0ABP8, Y161W); assay: Near-UV CD titrations; format: binding, E. coli; design: made in house; host or cells: E. coli DH5α-T1; details: for pKd: CD titrations with phosphate, three-binding-site model, 25 °C
Y160W PNP mutant, sequence (P0ABP8 2-239 Y161W): as the sequence (P0ABP8 2-239 Y161W, one chain of several) above
Procedure: (§6) Experiments were performed with Chirascan spectrophotometer (Applied Photophysics), in the near UV region (240–290 nm), thus in the region where aromatic amino acids absorb. Full spectra of the protein/complex were recorded, with 0.2 nm resolution and 2 s averaging per point. Enzyme concentration was in the range of 20–120 μM, the 50 mM Tris/HCl buffer pH 7.6 was used, ligands were dissolved in the same buffer. All measurements were performed at 25 °C. Upon addition of each volume of phosphate solution spectrum was recorded in the range 230–300 nm, in the amino acids absorption region, with 0.25 nm step and 2 s per point signal averaging. Spectra were smoothed with Savitzky-Golay algorithm[44] using a fourth degree polynomial and eleven points in the averaging window. The wavelengths of the greatest signal change were determined by calculating differential spectra. These wavelengths were used to plot the titration curves. Global analysis of five to seven curves was performed with DynaFit4[40].
as §3, §4, §5

WT E. coli PNP = molecular target: T3, WT E. coli PNP (Escherichia coli, UniProt P0ABP8); assay: Near-UV CD titrations; format: binding; details: for pKd: CD titrations with phosphate, three-binding-site model, 25 °C
T3 construct: made in house
T3 sequence (P0ABP8 2-239 limits assumed): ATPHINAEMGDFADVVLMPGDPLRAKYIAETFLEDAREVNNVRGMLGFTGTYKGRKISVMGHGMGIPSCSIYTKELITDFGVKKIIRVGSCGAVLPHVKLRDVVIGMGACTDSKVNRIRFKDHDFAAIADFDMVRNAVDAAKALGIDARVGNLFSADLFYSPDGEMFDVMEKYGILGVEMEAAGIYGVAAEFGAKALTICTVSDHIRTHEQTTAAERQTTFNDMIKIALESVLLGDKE
Procedure: as §6, §3, §4, §5

[1] = 50 mM Tris/HCl pH 7.6, read-out: Kd1 ± SD
[2] = 50 mM Tris/HCl pH 7.6, read-out: Kd2 ± SD
[3] = 50 mM Tris/HCl pH 7.6, read-out: Kd3 ± SD

**Q.** What does the source list for `Nc1ncnc2c([C@@H]3O[C@H](CO)[C@@H](O)[C@H]3O)[nH]nc12` [FA, Formycin A]?
**A.** pKd (WT PNP/Pi complex; Kd1 ± SD): 7.97; pKd (WT PNP/Pi complex; Kd3 ± SD): 3.73; pKd (Y160W mutant/Pi complex; Kd1 ± SD, three-binding-site model, 50 mM phosphate, pH 7.6, 25 °C): 6.86; pKd (Y160W mutant/Pi complex; Kd3 ± SD, three-binding-site model, 50 mM phosphate, pH 7.6, 25 °C): 2.76; pKd (Y160W mutant/Pi complex; read-out: Kd2 ± SD, three-binding-site model, 50 mM phosphate, pH 7.6, 25 °C): 3.96; Change in CD signal upon binding (Y160W PNP mutant; formycin A binding): no changes in the CD signal; Change in CD signal upon binding (WT E. coli PNP; formycin A binding): no changes in the CD signal

**Q.** How did the pKd (Y160W PNP mutant; [1]) turn out when `O=P(O)(O)O` [Pi, Orthophosphate] was run?
**A.** The pKd was 5.38.

**Q.** And the pKd (Y160W PNP mutant; [2])?
**A.** Its pKd is 3.89.

**Q.** And the pKd (Y160W PNP mutant; [3])?
**A.** The pKd was 2.63.

**Q.** What about the pKd (WT E. coli PNP; [1]) of the same compound?
**A.** The pKd was 6.24.

**Q.** And the pKd (WT E. coli PNP; [2])?
**A.** Its pKd is 3.97.

**Q.** What about the pKd (WT E. coli PNP; [3]) of the same compound?
**A.** Its pKd is 2.99.
